Source: EP4585588A1, “BENZIMIDAZOLE COMPOUND, AND PREPARATION METHOD THEREFOR AND USE THEREOF” (Suzhou Pharmavan Co., Ltd., priority 2022, dated 2024)

Legend:
[1] = test system: Models of Heart Failure due to Pressure Overload of Mice; experiment: Pharmacodynamic test in mouse models of heart failure due to pressure overload (thoracic aorta ligation); format: in vivo, C57BL/6 mice; details: 5 mg/kg intraperitoneal once a day for four consecutive weeks, after four weeks of administration (nine weeks of modeling); for Ejection Fraction (Mean) of Ventriculus Sinister of Heart: Table 5, model group 28.6%
Experimental: 1.1 Animals healthy C57BL/6 mice
Modeling by thoracic aorta ligation surgery: preoperative echocardiography was performed to exclude mice with abnormal cardiac functions; for mice with normal cardiac functions, anesthesia was performed, and the mice were anesthetized and then transferred into a small animal operating table and fixed; an open airway was established via endotracheal intubation, and anesthesia was maintained; taking the second rib as the center, the skin was cut along the sternum toward the first and third ribs to expose the connection between the second rib and the sternum; the second rib was cut to expose the aorta thoracic segment; the aortic arch was freed, a thin thread was inserted underneath, a thin needle was placed in parallel to the aortic arch for co-ligation; after ligation, the thin needle was withdrawn to observe the condition of the mice, and the mice were sutured layer by layer after stabilization; the mice were placed on the thermal insulation pad to keep warm, and after waking up, the mice were put back into the cage for daily feeding according to the activity.
After five weeks of modeling, echocardiography was performed on the mice to determine the ejection fractions of the hearts of the mice. When the ejection fraction decreased by about 50%, the ejection fraction met the experimental requirements, and the administration experiment started. Animals were grouped randomly and administered according to the ultrasound data, the echocardiography was performed every two weeks until week 9 ended, and pathological section analysis was performed.
The results were expressed using mean±standard error, data analysis was performed using GraphPad Prism statistical software, and the comparison was analyzed using a t-test. P < 0.05 was determined that there was a difference with statistical significance, otherwise P was determined that there was no significant difference.

[2] = test system: myosin heavy chain β (β-MHC); details: 48 h, 10 µM
Experimental: Separation and plating of cardiomyocytes of rats: a certain number of SPF suckling rats were taken and placed in a clean bench according to an actual requirement for the number of cells, thoracic cavities were opened by scissors, hearts were separated, and the hearts were cut into tissue fragments with sterilized surgical scissors; Collagenase Type II (manufacturer: Sigma, article No.: C2-28-100MG) was added to a D-HANKS balanced salt buffer to prepare a 5 µg/mL enzyme digestion solution, and the tissue fragments of hearts were continuously digested for three times in a 37 °C constant-temperature water bath box; about 2 mL of the enzyme digestion solution was added for the first time, a supernatant was discarded after digestion, centrifugation and precipitation of cardiomyocytes and tissue fragments, about 4 mL of the enzyme digestion solution was independently added for the second time and the third time to continue digestion, a supernatant was remained each time, DMEM containing 10% FBS with the same volume as the digestion solution in the supernatant was immediately added to neutralize digestive enzymes, the supernatants for the second time and the third time were combined and centrifuged, a supernatant was discarded, an appropriate amount of DMEM containing 10% FBS was added to resuspend the cardiomyocytes, the cardiomyocytes were inoculated in a 100 mm culture plate and subjected to differential adhesion in a constant-temperature cell incubator for 2 h, and a supernatant was taken for cell count.
A 24-well plate precoated with 1% gelatin was taken and plated at 1×10^5 cells/well, 500 µL of a 10% FBS+DMEM medium was contained in each well, and cells were cultured in a 37 °C constant-temperature cell incubator for 24 h. Different compounds were independently prepared into a 100 mM mother liquor with DMSO and gradient diluted with a 10% FBS+DMEM medium to prepare a 10 µM final solution of the compound containing 0.5% DMSO. The medium in the 24-well plate was discarded and replaced with a 500 µL/well medium containing a 10 µM compound, and three replicate wells and a negative control well were set for each compound. After 0.5 hours of drug action, PE (manufacturer: Meilun Biotechnology; article No.: MB1602) with a final concentration of 20 µM was added to each well, and no PE was added to the negative control wells; after 48 hours of PE action, sample detection was performed.
Expression levels of genes related to cardiomyocyte hypertrophy was analyzed via real-time quantitative PCR detection of mRNA level of atrial natriuretic peptide (ANP) and myosin heavy chain β (β-MHC). The steps include extraction of total RNA of cells, reverse transcription synthesis of cDNA and real-time quantitative PCR assay.
Based on real-time quantitative PCR detection of an mRNA level of ANP of cardiomyocytes, a drug with a potential of anti-cardiomyocyte hypertrophy was preliminarily screened and verified with an mRNA level of another hypertrophy gene β-MHC using a statistical method One-way ANOVA and statistical software GraphPad Prism.

[3] = test system: Primary cardiomyocytes of suckling rats; experiment: Area measurement of cardiomyocytes after PE injury; format: cell-based; details: 48 h, 10 µM
Experimental: Primary cardiomyocytes of suckling rats were isolated and cultured and inoculated on a cell culture plate. A drug stock solution was taken and separately added to cell wells according to a certain dilution ratio, and a final concentration was 10 µM. After half hour of drug action, a phenylephrine (PE) stock solution was added, and a final concentration of PE was 20 µM. After 48 hours of PE action, cell samples were collected for real-time quantitative PCR assay or cell area measurement.
Separation and plating of cardiomyocytes of rats: a certain number of SPF suckling rats were taken and placed in a clean bench according to an actual requirement for the number of cells, thoracic cavities were opened by scissors, hearts were separated, and the hearts were cut into tissue fragments with sterilized surgical scissors; Collagenase Type II (manufacturer: Sigma, article No.: C2-28-100MG) was added to a D-HANKS balanced salt buffer to prepare a […] enzyme digestion solution, and the tissue fragments of hearts were continuously digested for three times in a 37 °C constant-temperature water bath box; about 2 mL of the enzyme digestion solution was added for the first time, a supernatant was discarded after digestion, centrifugation and precipitation of cardiomyocytes and tissue fragments, about 4 mL of the enzyme digestion solution was independently added for the second time and the third time to continue digestion, a supernatant was remained each time, DMEM containing 10% FBS with the same volume as the digestion solution in the supernatant was immediately added to neutralize digestive enzymes, the supernatants for the second time and the third time were combined and centrifuged, a supernatant was discarded, an appropriate amount of DMEM containing 10% FBS was added to resuspend the cardiomyocytes, the cardiomyocytes were inoculated in a 100 mm culture plate and subjected to differential adhesion in a constant-temperature cell incubator for 2 h, and a supernatant was taken for cell count.
Area measurement of cardiomyocytes of rats: a 24-well plate precoated with 1% gelatin was taken and plated at 1.0×10^3 cells/well, 500 µL of a 10% FBS+DMEM medium was contained in each well, and cells were cultured in a 37 °C constant-temperature cell incubator for 24 h; different compounds were independently prepared into a 100 mM mother liquor with DMSO and gradient diluted with a 10% FBS+DMEM medium to prepare a 10 µM final solution of the compound containing […]; the medium in the 24-well plate was discarded and replaced with a 500 µL/well medium containing a 10 µM compound, and three replicate wells and a negative control well were set for each compound; after 0.5 hours of drug action, PE (manufacturer: Meilun Biotechnology; article No.: MB1602) with a final concentration of 20 µM was added to each well, and no PE was added to the negative control wells; after 48 hours of PE action, at least five fields of view were randomly selected from each well under an inverted microscope (manufacturer: Nikon; model: Eclipse TS100), and the cell area data was calculated by Image J software; the area of the cells in the negative control wells was set to 1, the cell area hypertrophy multiples of the PE wells and each administration well were calculated separately, and statistical analysis was performed using the One-Way ANOVA method.
The cardiomyocyte area was directly measured and the differences between the groups were compared for verification. The cardiomyocytes were co-intervened with PE and drugs and placed under a microscope for direct observation, and images were taken. The cell area data was calculated using Image J software. […]

Row | Structure (SMILES) | Ejection Fraction (Mean) of Ventriculus Sinister of Heart [1] | Mean (real-time quantitative PCR validation results of cardiomyocyte β-MHC) [2] | Cell Area Hypertrophy Multiple (Mean±Standard Deviation) Compared with Control Wells [3] | Ejection Fraction (Mean) of Heart ([1]; Table 6, model group 29.8%)
1 | Cc1nc2cc(-c3cc(F)cc(C#N)c3O)ccc2[nH]1 [Formula I-3, 5-fluoro-2-hydroxy-3-(2-methyl-1H-benzimidazol-5-yl)benzonitrile] | 37.8% | 1.24 | 1.07±0.15 | –
2 | Cc1nc2cc(-c3cc(C(N)=O)ccc3O)ccc2[nH]1 [Formula I-4, 4-hydroxy-3-(2-methyl-1H-benzimidazol-5-yl)benzamide] | 35.4% | 1.15 | 1.27±0.34 | –
3 | Cc1nc2cc(-c3cc(F)cc(F)c3C(C)(C)O)ccc2[nH]1 [Formula II-2, 2-(2,4-difluoro-6-(2-methyl-1H-benzimidazol-5-yl)phenyl)propane-2-ol] | – | 1.42 | 1.33±0.11 | 37.3%
